Data set [1] deals with TCR target genes IL-2 and TNFα in Jurkat T-cells. Put plainly: mRNA expression (qRT-PCR) in Jurkat T-cells. The settings on record: PMA/Ionomycin. Format: cell-based, human. On the procedure: (§1) For MEF cells, 1.2×10^5 cells per sample were seeded, treated with compound for 6 hours and stimulated with either IL-1β or TNFα for 60 minutes. Jurkat T-cells and primary mouse CD4^+ T-cells were seeded at 2×10^5 cells per sample, also treated with compound for 6 hours and stimulated with PMA/lonomycin for 3 hours. RNA was isolated according to the manufacturer's protocol of the Qiagen RNeasy Kit (MEF cells) or the STRATEC INVITRAP® SPIN UNIVERSAL RNA MINI KIT (Jurkat T-cells). The isolation of mRNA from […] white adipose tissue from DIO mice was performed using TRIzol® Reagent according to manufacturer's instruction. To clear the isolated RNA from genomic DNA, samples (up to 5 μg RNA) were treated with RQ1 RNase-Free DNaseI (Promega) as described in the technical manual. For the reverse transcription of RNA into cDNA, the DNaseI digested RNA samples were processed using the SuperScript III First Strand cDNA Synthesis System (Invitrogen/ThermoFisher Scientific) following the manufacturer's protocol. […] For quantification of cDNA in the samples, the LightCylcer480 (Roche) and the KAPA SYBR FAST qPCR Kit were used. For relative quantification, the ΔΔCp method first described by Pfaffl (Pfaffl, M. W., A new mathematical model for relative quantification in real-time RT-PCR. Nucleic Acids Res, 2001. 29(9): p. e45) was applied.
A general note: Quantitative PCR measures a nucleic acid by following its amplification.

The test system of data set [2] is p-IκBα (Ser32/36) in MEF cells. As to the kind of experiment: ALPHASurefire p-IκBα / total IκBα in MEF cells. Format: cell-based, mouse. As to conditions: IL-1β. Here is the method: In order to detect protein levels of p-IκBα (Ser32/36) as well as total IκBa, 1×10^4 MEF cells were seeded in 96-well plates, treated with compound for 6 hours and stimulated with 1 ng/ml IL-1β for 7 minutes. The p-IκBα and total IκBα protein levels were analyzed using the ALPHASurefire kits (PerkinElmer) following the manufacturer's instruction. The general 2-plate protocol was conducted.

Data set [3] concerns IL-2 and TNFα secretion of Jurkat T-cells. As to the kind of experiment: ELISA cytokine secretion, Jurkat T-cells. The data set is classed as cell-based, human. Here is the method: For measurement of cytokine secretion, 2×10^5 Jurkat T-cells or primary CD4^+ T-cells or human PBMCs per sample were seeded, treated with compound for 6 hours and stimulated as indicated. 20 hours after stimulation, supernatants were harvested and analyzed with the IL-2, IL-1β and TNFα Ready-Set-Go! ELISA (2nd Generation) kits provided by Affymatrix eBioscience.
Background: In an ELISA, binding on a coated surface is turned into a signal by an enzyme label.

For data set [4], the system named is HepG2 cells. As to the kind of experiment: CellTiter-Glo viability assay, HepG2 cells. The data set is classed as cell-based. The settings on record: 6 or 24 hours incubation. Here is the method:
For cell viability experiments using the CellTiter-Glo® 2.0 system (Promega), MEF cells (1.2×10^3 cells/well), HepG2 cells (4×10^3 cells/well) and Jurkat T-cells (5×10^3 cells/well) were seeded in 384 well plates. After 18 hours, cells were treated with compounds using the Sciclone G3 automation system. After 6 or 24 hours incubation, the luciferase measurement was performed according to the manufacturer's manual.
For orientation: ATP-based viability assays read luminescence as a measure of living cells.

Data set [5] deals with U2OS cells. Put plainly: Cell cycle assessment (propidium iodide), U2OS cells. Format: cell-based. As to conditions: 24 hours and 72 hours. Here is the method:
For cell cycle staining, cells were seeded at 2×10^5 cells per sample and treated with compound or DMSO. After the indicated incubation time (24 or 72 hours), cells were fixed in 100% Ethanol and subsequently stained with the Propidium Iodide staining solution (0.1% Triton X-100; 20 μg/ml Propidium Iodide; 200 μg/ml RNAse A in PBS) for 40 min in the dark. The Propidium Iodide fluorescence was collected using the Attune Flow Cytometer (Thermo Fisher Scientific). Analysis was performed using the Single Cell analysis software FlowJo.

Data set [6] relates to primary murine CD4+ T-cells. Put plainly: Primary mouse CD4+ T-cells, CD3/CD28 stimulation (qRT-PCR, ELISA). The data set is classed as cell-based. As to conditions: primary naive CD4+ T-cells. On the procedure:
as §1, with “Jurkat T-cells and primary mouse CD4^+ T-cells were seeded at 2×10^5 cells per sample, also treated with compound for 6 hours and stimulated with PMA/lonomycin for 3 hours.” left out, “manual.” for “manual. For the reverse transcription of RNA into cDNA, the DNaseI digested RNA samples were processed using the SuperScript III First Strand cDNA Synthesis System (Invitrogen/ThermoFisher Scientific) following the manufacturer's protocol.”, “applied. […]” for “applied.”
For measurement of cytokine secretion, 2×10^5 Jurkat T-cells or primary CD4^+ T-cells or human PBMCs per sample were seeded, treated with compound for 6 hours and stimulated as indicated. 20 hours after stimulation, supernatants were harvested and analyzed with the IL-2, IL-1β and TNFα Ready-Set-Go! […]

Data on one compound can be found in patent US12240854B2, “TRAF 6 inhibitors” (Helmholtz Zentrum München - Deutsches Forschungszentrum für …, priority 2018, dated 2025).

Molecules are shown by their SMILES. Entries after “also recorded” stand apart in the source; their conditions may differ.

Regarding `Cc1nn(-c2ccc3nnc(C)n3n2)c(C)c1CCC(=O)N1CCC(Cc2ccccc2)CC1` [Example C25-140, 1-(4-Benzylpiperidin-1-yl)-3-(3,5-dimethyl-1-(3-methyl-[1,2,4]-triazolo-[4,3-b]-pyridazin-6-yl)-1H-pyrazol-4-yl)-propan-1-one], in data set [1], the “mRNA levels of TCR target genes IL-2 and TNFα” value is on record as “reduced; also recorded: dose-dependently decreased”. The “activity in cell-based ALPHASurefire (NF-κB activation, p-IκBα)” value in data set [2] is “improved inhibitory activity; also recorded: more active”. In addition, the “cytokine secretion of IL-2 and TNFα” value in data set [3] is “reduced; also recorded: dose-dependently decreased”. The “metabolic activity and cell viability” value in data set [4] is “did not considerably impact cell viability; also recorded: does not considerably affect metabolic activity and cell viability up to 50 μM; also recorded: at the highest dose of 100 μM toxicity is noticeable”. The cell cycle progression result in data set [5] is “no effects on cell cycle phases; also recorded: not impaired”. In data set [6], the “IL-2 mRNA expression” value is given as “impaired” and the IL-2 protein secretion entry is “counteracted; also recorded: impaired”.
